Assay results reported in publication PMC8214221, “Sequence determinants in the cathelicidin LL-37 that promote inflammation via presentation of RNA to scavenger receptors” (The Journal of Biological Chemistry, 2021).
Residues, ends and D or L forms follow the SMILES beside them.

Key:
[1] = test system: NHEKs, IL-6 secretion in response to U1 dsRNA; assay: IL-6 secretion ELISA in NHEKs; type: cell-based, human; conditions: U1 dsRNA 2.5 μg/ml + peptide 2 μM, 18 h, n = 3
Experimental: Protein levels of human IL-6 were analyzed from cell supernatant with ELISA (n = 3). Corresponding MIC values of LL-34 peptides L1A–R34A against Staphylococcus aureus USA300 are shown in the heat map. B, human dermal endothelial cells (HDMECs) were treated with either U1 dsRNA (2.5 μg/ml) or a combination of U1 dsRNA (2.5 μg/ml) and LL-34 peptides (Pep 1–Pep 34 and Pep–parent LL-34) at 2 μM for 18 h. IL-6 ELISA results are shown (n = 3). Green bars denote loss of IL-6 protein secretion compared with parent control shown in red. C, helical wheel plot for LL-34. Amino acids with green circles denote specific residues where replacement with an alanine caused the loss of IL-6 secretion compared with parent LL-34 peptide in NHEKs cotreated with U1 dsRNA. D, in the helical wheel plot for LL-34, circled green amino acids indicate that a substitution caused a loss of vetting in HDMEC. E–H, NHEKs were treated with LL-34-parent peptide (LL-34-P), LL-34-F5A, LL-34-I24A, LL-34-F27A, and LL-34-L31A at 2 μM, either individually or in combination with U1 dsRNA (2.5 μg/ml) for 8 h. Gene expression of IL-6, IFNB1, TSLP, and CXCL10 was assessed with qRT-PCR. GAPDH was used as a reference gene (n = 3) (∗p < 0.05; ∗∗∗∗p < 0.0001). One way-ANOVA was used. IL-6, interleukin 6; LL-34, 34-amino acid peptide; MIC, minimum inhibitory concentration, ns, not significant.
We hypothesized that sequential replacement of each amino acid in LL-34 peptide with a neutral amino acid alanine might reveal the amino acid residues critical for its ability to induce inflammation in response to U1 dsRNA. First, we treated NHEKs and human dermal microvascular endothelial cells (HDMECs) with LL-34 parent peptide and each of the 34 mutants at 2 μM for 18 h and measured the secretion of interleukin 6 (IL-6) in the supernatant by ELISA (Fig. S1, A and B). […] We then treated both NHEKs and HDMECs with a combination of U1 dsRNA (2.5 μg/ml) and the LL-34 parent/mutant peptides at 2 μM for 18 h and measured IL-6 secretion (Fig. 1, A–C). […] A similar pattern of IL-6 release was observed when HDMECs were treated with the peptide library and U1 dsRNA (Fig. 1B).
Cell culture supernatant was frozen at −80 °C until use for analysis. ELISA was performed with sandwich ELISA kits (R&D Systems) and quantified on a Spectramax Absorbance reader (Molecular Biosystems). Data were analyzed with GraphPad.

[2] = test system: normal human epidermal keratinocytes (NHEKs); assay: LDH release cytotoxicity assay in keratinocytes; type: cell-based; conditions: minimal concentration giving 50% LDH release by NHEKs
Summary of the method: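 Normal human epidermal keratinocytes were exposed to LL-34 parent and alanine-substituted peptides. Cytotoxicity was read as LDH release in fresh culture supernatants after treatment, using a commercial kit, and reported as the minimal concentration showing toxicity.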

Structure (SMILES)	IL-6 protein secretion, cotreatment with U1 dsRNA, vs U1 dsRNA + LL-34 parent [1]	Minimal cytotoxic concentration in NHEK (LD50) [2] [µM]
CC[C@H](C)[C@H](NC(=O)[C@H](CCCCN)NC(=O)[C@H](CCC(=O)O)NC(=O)[C@H](CCCCN)NC(=O)[C@H](CO)NC(=O)[C@H](CCCCN)NC(=O)[C@H](CCCNC(=N)N)NC(=O)[C@H](C)NC(=O)[C@H](Cc1ccccc1)NC(=O)[C@H](CC(=O)O)NC(=O)CNC(=O)[C@H](CC(C)C)NC(=O)[C@@H](N)CC(C)C)C(=O)NCC(=O)N[C@@H](CCCCN)C(=O)N[C@@H](CCC(=O)O)C(=O)N[C@@H](Cc1ccccc1)C(=O)N[C@@H](CCCCN)C(=O)N[C@@H](CCCNC(=N)N)C(=O)N[C@H](C(=O)N[C@H](C(=O)N[C@@H](CCC(N)=O)C(=O)N[C@@H](CCCNC(=N)N)C(=O)N[C@H](C(=O)N[C@@H](CCCCN)C(=O)N[C@@H](CC(=O)O)C(=O)N[C@@H](Cc1ccccc1)C(=O)N[C@@H](CC(C)C)C(=O)N[C@@H](CCCNC(=N)N)C(=O)N[C@@H](CC(N)=O)C(=O)N[C@@H](CC(C)C)C(=O)N[C@H](C(=O)N1CCC[C@H]1C(=O)N[C@@H](CCCNC(=N)N)C(=O)O)C(C)C)[C@@H](C)CC)C(C)C)[C@@H](C)CC [LL-34—F6A] (H-LLGDFARKSKEKIGKEFKRIVQRIKDFLRNLVPR-OH)	reduced secretion of IL-6 protein	5
CC[C@H](C)[C@H](NC(=O)[C@H](CCCCN)NC(=O)[C@H](CCC(=O)O)NC(=O)[C@H](CCCCN)NC(=O)[C@H](CO)NC(=O)[C@H](CCCCN)NC(=O)[C@H](CCCNC(=N)N)NC(=O)[C@H](Cc1ccccc1)NC(=O)[C@H](Cc1ccccc1)NC(=O)[C@H](CC(=O)O)NC(=O)CNC(=O)[C@H](CC(C)C)NC(=O)[C@@H](N)CC(C)C)C(=O)NCC(=O)N[C@@H](CCCCN)C(=O)N[C@@H](CCC(=O)O)C(=O)N[C@@H](C)C(=O)N[C@@H](CCCCN)C(=O)N[C@@H](CCCNC(=N)N)C(=O)N[C@H](C(=O)N[C@H](C(=O)N[C@@H](CCC(N)=O)C(=O)N[C@@H](CCCNC(=N)N)C(=O)N[C@H](C(=O)N[C@@H](CCCCN)C(=O)N[C@@H](CC(=O)O)C(=O)N[C@@H](Cc1ccccc1)C(=O)N[C@@H](CC(C)C)C(=O)N[C@@H](CCCNC(=N)N)C(=O)N[C@@H](CC(N)=O)C(=O)N[C@@H](CC(C)C)C(=O)N[C@H](C(=O)N1CCC[C@H]1C(=O)N[C@@H](CCCNC(=N)N)C(=O)O)C(C)C)[C@@H](C)CC)C(C)C)[C@@H](C)CC [LL-34—F17A] (H-LLGDFFRKSKEKIGKEAKRIVQRIKDFLRNLVPR-OH)	reduced secretion of IL-6 protein	5
CC[C@H](C)[C@H](NC(=O)[C@H](CCCCN)NC(=O)[C@H](CCC(=O)O)NC(=O)[C@H](CCCCN)NC(=O)[C@H](CO)NC(=O)[C@H](CCCCN)NC(=O)[C@H](CCCNC(=N)N)NC(=O)[C@H](Cc1ccccc1)NC(=O)[C@H](Cc1ccccc1)NC(=O)[C@H](CC(=O)O)NC(=O)CNC(=O)[C@H](CC(C)C)NC(=O)[C@@H](N)CC(C)C)C(=O)NCC(=O)N[C@@H](CCCCN)C(=O)N[C@@H](CCC(=O)O)C(=O)N[C@@H](Cc1ccccc1)C(=O)N[C@@H](CCCCN)C(=O)N[C@@H](CCCNC(=N)N)C(=O)N[C@@H](C)C(=O)N[C@H](C(=O)N[C@@H](CCC(N)=O)C(=O)N[C@@H](CCCNC(=N)N)C(=O)N[C@H](C(=O)N[C@@H](CCCCN)C(=O)N[C@@H](CC(=O)O)C(=O)N[C@@H](Cc1ccccc1)C(=O)N[C@@H](CC(C)C)C(=O)N[C@@H](CCCNC(=N)N)C(=O)N[C@@H](CC(N)=O)C(=O)N[C@@H](CC(C)C)C(=O)N[C@H](C(=O)N1CCC[C@H]1C(=O)N[C@@H](CCCNC(=N)N)C(=O)O)C(C)C)[C@@H](C)CC)C(C)C [LL-34—I20A] (H-LLGDFFRKSKEKIGKEFKRAVQRIKDFLRNLVPR-OH)	reduced secretion of IL-6 protein	5
CC[C@H](C)[C@H](NC(=O)[C@H](C)NC(=O)[C@H](CCC(N)=O)NC(=O)[C@@H](NC(=O)[C@@H](NC(=O)[C@H](CCCNC(=N)N)NC(=O)[C@H](CCCCN)NC(=O)[C@H](Cc1ccccc1)NC(=O)[C@H](CCC(=O)O)NC(=O)[C@H](CCCCN)NC(=O)CNC(=O)[C@@H](NC(=O)[C@H](CCCCN)NC(=O)[C@H](CCC(=O)O)NC(=O)[C@H](CCCCN)NC(=O)[C@H](CO)NC(=O)[C@H](CCCCN)NC(=O)[C@H](CCCNC(=N)N)NC(=O)[C@H](Cc1ccccc1)NC(=O)[C@H](Cc1ccccc1)NC(=O)[C@H](CC(=O)O)NC(=O)CNC(=O)[C@H](CC(C)C)NC(=O)[C@@H](N)CC(C)C)[C@@H](C)CC)[C@@H](C)CC)C(C)C)C(=O)N[C@@H](CCCCN)C(=O)N[C@@H](CC(=O)O)C(=O)N[C@@H](Cc1ccccc1)C(=O)N[C@@H](CC(C)C)C(=O)N[C@@H](CCCNC(=N)N)C(=O)N[C@@H](CC(N)=O)C(=O)N[C@@H](CC(C)C)C(=O)N[C@H](C(=O)N1CCC[C@H]1C(=O)N[C@@H](CCCNC(=N)N)C(=O)O)C(C)C [LL-34—R23A] (H-LLGDFFRKSKEKIGKEFKRIVQAIKDFLRNLVPR-OH)	reduced secretion of IL-6 protein	10
CC[C@H](C)[C@H](NC(=O)[C@H](CCCCN)NC(=O)[C@H](CCC(=O)O)NC(=O)[C@H](CCCCN)NC(=O)[C@H](CO)NC(=O)[C@H](CCCCN)NC(=O)[C@H](CCCNC(=N)N)NC(=O)[C@H](Cc1ccccc1)NC(=O)[C@H](Cc1ccccc1)NC(=O)[C@H](CC(=O)O)NC(=O)CNC(=O)[C@H](CC(C)C)NC(=O)[C@@H](N)CC(C)C)C(=O)NCC(=O)N[C@@H](CCCCN)C(=O)N[C@@H](CCC(=O)O)C(=O)N[C@@H](Cc1ccccc1)C(=O)N[C@@H](CCCCN)C(=O)N[C@@H](CCCNC(=N)N)C(=O)N[C@H](C(=O)N[C@H](C(=O)N[C@@H](CCC(N)=O)C(=O)N[C@@H](CCCNC(=N)N)C(=O)N[C@H](C(=O)N[C@@H](CCCCN)C(=O)N[C@@H](CC(=O)O)C(=O)N[C@@H](Cc1ccccc1)C(=O)N[C@@H](CC(C)C)C(=O)N[C@@H](CCCNC(=N)N)C(=O)N[C@@H](CC(N)=O)C(=O)N[C@@H](CC(C)C)C(=O)N[C@@H](C)C(=O)N1CCC[C@H]1C(=O)N[C@@H](CCCNC(=N)N)C(=O)O)[C@@H](C)CC)C(C)C)[C@@H](C)CC [LL-34—V32A] (H-LLGDFFRKSKEKIGKEFKRIVQRIKDFLRNLAPR-OH)	reduced secretion of IL-6 protein	10
